Measurements reported in patent US20070264198A1, “TUMOR NECROSIS AGENT” (Ajinomoto Co., Inc., priority 2001, published 2007).
Structures can show the parent of a compound that is named as a salt.

Columns and labels:
[1] = system: arteriole supplying nutrients to the tumor / tumor blood flow (SLC tumor); experiment: Biomicroscopic observation of the change of tumor microcirculation; format: in vivo, rat; settings: intravenous 10 mg/kg
Procedure: (§1) Donryu rats (Crj-Donryu; supplied by Charles River Japan, Inc.), male.
(§2) Rat lung carcinoma, Sato lung carcinoma (SLC)
(§3) MTPVS powder was dissolved in physiological saline to a final concentration of 10 mg/ml. The solution (10 mg/kg) was administered through the tail vein of rats. Pentobarbital salt (Nembutal; manufactured by Abbott Laboratories) and enflurane (Ethrane; manufactured by Abbott Laboratories) was used as an anesthesia. Pentobarbital was intramuscularly administered at a dose of 25 mg/kg, 10 minutes prior to the experiment, and a suitable amount thereof was additionally administered at intervals of 90 minutes to maintain anesthesia during the experiment. The concentration of enflurane was maintained at 1% (1 L/min) using an anesthesia device for small animals.
The change of the tumor blood flow (hereinafter referred to as “TBF”) was observed through a biomicroscope. The dorsal skin of the rat was held with a transparent chamber under sterile conditions, and a small fragment of tumor was implanted thereon. After the tumor started to grow thereto, the rat was tested as described in Jpn. J. Cancer Res. 81: 279-288, 1990, which is incorporated herein by reference. The chamber comprises two titanium flames of the same shape each having a circular quartz glass window with a thickness of 300 μm. After anesthesia, the rat with the chamber was put on a stage heated at 34.5° C. in the microscope.
MTPVS used in a test group was administered through the tail vein by infusion pump. […] and histological changes of tumor were directly observed through an optical microscope (Eclipse E800; manufactured by Nikon Corporation) with an eye lens of 10× and an object glass of 2× to 20×. The blood vessels of tumor in the chamber were visualized with a halogen lump of 12 V and 100 W. The images of the microscope were recorded using a CCD video camera (CS-900; manufactured by Olympus Corporation), a television monitor and an S-VHS video recorder.
At this time, in the blood vessel on the peripheral portion of the tumor, the plasma concentration was decreased, and large quantities of red blood cells were retained. These red blood cells were hemolyzed within 2 to 3 hours after MTPVS administration to form clog.
An inserted section on the left upper portion in FIG. 4 is an enlarged view of the blood vessels on the peripheral portion of the tumor. FIGS. 1 to 4 are based on photographs taken (length of a bar: 500 μm) by using an eye lens of 10× and an object glass of 4×. The inserted section is based on a photograph taken (length of a bar: 50 μm) by using an eye lens of 10× and an object glass of 20×.

[2] = system: Sato lung carcinoma (SLC); experiment: Anti-tumor effect against tumor grown in the transparent chamber; format: in vivo, rat; settings: 10 mg/kg, tail vein, Donryu rats; state maintained for 48 hours after treatment
Procedure: as §1, §2, §3
The change of the tumor blood flow (hereinafter referred to as “TBF”) was observed through a biomicroscope. The dorsal skin of the rat was held with a transparent chamber under sterile conditions, and a small fragment of tumor was implanted thereon. […]
MTPVS used in a test group was administered through the tail vein by infusion pump. […] The blood vessels of tumor in the chamber were visualized with a halogen lump of 12 V and 100 W. The images of the microscope were recorded using a CCD video camera (CS-900; manufactured by Olympus Corporation), a television monitor and an S-VHS video recorder. […]

COc1ccc(/C=C\c2cc(OC)c(OC)c(OC)c2)cc1NC(=O)[C@@H](N)CO [MTPVS, (Z)-N-[2-methoxy-5-[2-(3,4,5-trimethoxyphenyl)vinyl]phenyl]-L-serinamide hydrochloride]
restoration of tumor blood flow after clog and hemolysis [1]: no longer restored | time at which tumor blood flow stopped almost completely ([1]; after administration): 30 min | time to hemolysis of retained red blood cells in blood vessel on peripheral portion of the tumor (clog formation) ([1]; after administration): 2 to 3 hours | blood vessel structure in the normal tissues ([1]; normal tissues): maintained as normal | contraction of the arteriole supplying nutrients to the tumor ([1]; rat SLC tumor in transparent chamber): markedly contracted | time to necrosis of SLC tumor grown in the transparent chamber [2]: ≤ 25 h
